In US6960574B2, “Antagonists of RF-amide neuropeptides” (University of Florida, priority 2002, dated 2005):
Peptide text beside a SMILES is read from it. * marks the point of attachment. Dansyl = CN(C)c1cccc2c(S(=O)(=O)*)cccc12

system: receptor labeled by the radioiodinated analogue of 1 (4, [125I]-YLFQPQRF-NH2); neuropeptide FF receptor; assay: Competitive radioligand binding against 4 ([125I]Y8F-amide); details: mixture-based positional scanning; difference from averaged radioligand displacement of whole library (0); about 80 a.u. = 10-fold change in Ki

Relative Binding Index (RBI) [a.u.]	Compound
−1	CN(C)c1cccc2c(S(=O)(=O)N[C@@H](Cc3c[nH]cn3)C(=O)N[C@@H](CC(=O)O)C(=O)N[C@@H](CCCNC(=N)N)C(N)=O)cccc12 [Dansyl-HDR-amide] (Dansyl-His-Asp-Arg-NH2)
17	CN(C)c1cccc2c(S(=O)(=O)N[C@@H](Cc3c[nH]cn3)C(=O)N[C@@H](CCC(=O)O)C(=O)N[C@@H](CCCNC(=N)N)C(N)=O)cccc12 [Dansyl-HER-amide] (Dansyl-His-Glu-Arg-NH2)
15	CN(C)c1cccc2c(S(=O)(=O)N[C@@H](Cc3cnc[nH]3)C(=O)N[C@@H](Cc3ccccc3)C(=O)N[C@@H](CCCNC(=N)N)C(N)=O)cccc12 [Dansyl-HFR-amide] (Dansyl-His-Phe-Arg-NH2)
22	CN(C)c1cccc2c(S(=O)(=O)N[C@@H](Cc3c[nH]cn3)C(=O)NCC(=O)N[C@@H](CCCNC(=N)N)C(N)=O)cccc12 [Dansyl-HGR-amide] (Dansyl-His-Gly-Arg-NH2)
11	CN(C)c1cccc2c(S(=O)(=O)N[C@@H](Cc3c[nH]cn3)C(=O)N[C@@H](Cc3c[nH]cn3)C(=O)N[C@@H](CCCNC(=N)N)C(N)=O)cccc12 [Dansyl-HHR-amide] (Dansyl-His-His-Arg-NH2)
23	CC[C@H](C)[C@H](NC(=O)[C@H](Cc1c[nH]cn1)NS(=O)(=O)c1cccc2c(N(C)C)cccc12)C(=O)N[C@@H](CCCNC(=N)N)C(N)=O [Dansyl-HIR-amide] (Dansyl-His-Ile-Arg-NH2)
14	CN(C)c1cccc2c(S(=O)(=O)N[C@@H](Cc3cnc[nH]3)C(=O)N[C@@H](CCCCN)C(=O)N[C@@H](CCCNC(=N)N)C(N)=O)cccc12 [Dansyl-HKR-amide] (Dansyl-His-Lys-Arg-NH2)
8	CC(C)C[C@H](NC(=O)[C@H](Cc1cnc[nH]1)NS(=O)(=O)c1cccc2c(N(C)C)cccc12)C(=O)N[C@@H](CCCNC(=N)N)C(N)=O [Dansyl-HLR-amide] (Dansyl-His-Leu-Arg-NH2)
17	CSCC[C@H](NC(=O)[C@H](Cc1cnc[nH]1)NS(=O)(=O)c1cccc2c(N(C)C)cccc12)C(=O)N[C@@H](CCCNC(=N)N)C(N)=O [Dansyl-HMR-amide] (Dansyl-His-Met-Arg-NH2)
18	CN(C)c1cccc2c(S(=O)(=O)N[C@@H](Cc3c[nH]cn3)C(=O)N[C@@H](CC(N)=O)C(=O)N[C@@H](CCCNC(=N)N)C(N)=O)cccc12 [Dansyl-HNR-amide] (Dansyl-His-Asn-Arg-NH2)
20	CN(C)c1cccc2c(S(=O)(=O)N[C@@H](Cc3cnc[nH]3)C(=O)N3CCC[C@H]3C(=O)N[C@@H](CCCNC(=N)N)C(N)=O)cccc12 [Dansyl-HPR-amide] (Dansyl-His-Pro-Arg-NH2)
30	CN(C)c1cccc2c(S(=O)(=O)N[C@@H](Cc3cnc[nH]3)C(=O)N[C@@H](CCC(N)=O)C(=O)N[C@@H](CCCNC(=N)N)C(N)=O)cccc12 [Dansyl-HQR-amide] (Dansyl-His-Gln-Arg-NH2)
15	CN(C)c1cccc2c(S(=O)(=O)N[C@@H](Cc3cnc[nH]3)C(=O)N[C@@H](CCCNC(=N)N)C(=O)N[C@@H](CCCNC(=N)N)C(N)=O)cccc12 [Dansyl-HRR-amide] (Dansyl-His-Arg-Arg-NH2)
37	CN(C)c1cccc2c(S(=O)(=O)N[C@@H](Cc3c[nH]cn3)C(=O)N[C@@H](CO)C(=O)N[C@@H](CCCNC(=N)N)C(N)=O)cccc12 [Dansyl-HSR-amide] (Dansyl-His-Ser-Arg-NH2)
22	C[C@@H](O)[C@H](NC(=O)[C@H](Cc1cnc[nH]1)NS(=O)(=O)c1cccc2c(N(C)C)cccc12)C(=O)N[C@@H](CCCNC(=N)N)C(N)=O [Dansyl-HTR-amide] (Dansyl-His-Thr-Arg-NH2)
12	CC(C)[C@H](NC(=O)[C@H](Cc1c[nH]cn1)NS(=O)(=O)c1cccc2c(N(C)C)cccc12)C(=O)N[C@@H](CCCNC(=N)N)C(N)=O [Dansyl-HVR-amide] (Dansyl-His-Val-Arg-NH2)
26	CN(C)c1cccc2c(S(=O)(=O)N[C@@H](Cc3cnc[nH]3)C(=O)N[C@@H](Cc3c[nH]c4ccccc34)C(=O)N[C@@H](CCCNC(=N)N)C(N)=O)cccc12 [Dansyl-HWR-amide] (Dansyl-His-Trp-Arg-NH2)
16	CN(C)c1cccc2c(S(=O)(=O)N[C@@H](Cc3c[nH]cn3)C(=O)N[C@@H](Cc3ccc(O)cc3)C(=O)N[C@@H](CCCNC(=N)N)C(N)=O)cccc12 [Dansyl-HYR-amide] (Dansyl-His-Tyr-Arg-NH2)
−60	CC[C@H](C)[C@H](NS(=O)(=O)c1cccc2c(N(C)C)cccc12)C(=O)N[C@@H](C)C(=O)N[C@@H](CCCNC(=N)N)C(N)=O [Dansyl-IAR-amide] (Dansyl-Ile-Ala-Arg-NH2)
−29	CC[C@H](C)[C@H](NS(=O)(=O)c1cccc2c(N(C)C)cccc12)C(=O)N[C@@H](CC(=O)O)C(=O)N[C@@H](CCCNC(=N)N)C(N)=O [Dansyl-IDR-amide] (Dansyl-Ile-Asp-Arg-NH2)

Relative Binding Index (RBI) [a.u.]	Compound
−11	CC[C@H](C)[C@H](NS(=O)(=O)c1cccc2c(N(C)C)cccc12)C(=O)N[C@@H](CCC(=O)O)C(=O)N[C@@H](CCCNC(=N)N)C(N)=O [Dansyl-IER-amide] (Dansyl-Ile-Glu-Arg-NH2)
−12	CC[C@H](C)[C@H](NS(=O)(=O)c1cccc2c(N(C)C)cccc12)C(=O)N[C@@H](Cc1ccccc1)C(=O)N[C@@H](CCCNC(=N)N)C(N)=O [Dansyl-IFR-amide] (Dansyl-Ile-Phe-Arg-NH2)
−6	CC[C@H](C)[C@H](NS(=O)(=O)c1cccc2c(N(C)C)cccc12)C(=O)NCC(=O)N[C@@H](CCCNC(=N)N)C(N)=O [Dansyl-IGR-amide] (Dansyl-Ile-Gly-Arg-NH2)
−17	CC[C@H](C)[C@H](NS(=O)(=O)c1cccc2c(N(C)C)cccc12)C(=O)N[C@@H](Cc1c[nH]cn1)C(=O)N[C@@H](CCCNC(=N)N)C(N)=O [Dansyl-IHR-amide] (Dansyl-Ile-His-Arg-NH2)
−5	CC[C@H](C)[C@H](NC(=O)[C@@H](NS(=O)(=O)c1cccc2c(N(C)C)cccc12)[C@@H](C)CC)C(=O)N[C@@H](CCCNC(=N)N)C(N)=O [Dansyl-IIR-amide] (Dansyl-Ile-Ile-Arg-NH2)
−13	CCC(C)C(NS(=O)(=O)c1cccc2c(N(C)C)cccc12)C(=O)NC(CCCCN)C(=O)NC(CCCNC(=N)N)C(N)=O (stereo not drawn) [Dansyl-IKR-amide] (Dansyl-Ile-Lys-Arg-NH2; configuration not given here)
−19	CC[C@H](C)[C@H](NS(=O)(=O)c1cccc2c(N(C)C)cccc12)C(=O)N[C@@H](CC(C)C)C(=O)N[C@@H](CCCNC(=N)N)C(N)=O [Dansyl-ILR-amide] (Dansyl-Ile-Leu-Arg-NH2)
−11	CC[C@H](C)[C@H](NS(=O)(=O)c1cccc2c(N(C)C)cccc12)C(=O)N[C@@H](CCSC)C(=O)N[C@@H](CCCNC(=N)N)C(N)=O [Dansyl-IMR-amide] (Dansyl-Ile-Met-Arg-NH2)
−10	CC[C@H](C)[C@H](NS(=O)(=O)c1cccc2c(N(C)C)cccc12)C(=O)N[C@@H](CC(N)=O)C(=O)N[C@@H](CCCNC(=N)N)C(N)=O [Dansyl-INR-amide] (Dansyl-Ile-Asn-Arg-NH2)
−8	CC[C@H](C)[C@H](NS(=O)(=O)c1cccc2c(N(C)C)cccc12)C(=O)N1CCC[C@H]1C(=O)N[C@@H](CCCNC(=N)N)C(N)=O [Dansyl-IPR-amide] (Dansyl-Ile-Pro-Arg-NH2)
3	CC[C@H](C)[C@H](NS(=O)(=O)c1cccc2c(N(C)C)cccc12)C(=O)N[C@@H](CCC(N)=O)C(=O)N[C@@H](CCCNC(=N)N)C(N)=O [Dansyl-IQR-amide] (Dansyl-Ile-Gln-Arg-NH2)
−12	CC[C@H](C)[C@H](NS(=O)(=O)c1cccc2c(N(C)C)cccc12)C(=O)N[C@@H](CCCNC(=N)N)C(=O)N[C@@H](CCCNC(=N)N)C(N)=O [Dansyl-IRR-amide] (Dansyl-Ile-Arg-Arg-NH2)
10	CC[C@H](C)[C@H](NS(=O)(=O)c1cccc2c(N(C)C)cccc12)C(=O)N[C@@H](CO)C(=O)N[C@@H](CCCNC(=N)N)C(N)=O [Dansyl-ISR-amide] (Dansyl-Ile-Ser-Arg-NH2)
−6	CC[C@H](C)[C@H](NS(=O)(=O)c1cccc2c(N(C)C)cccc12)C(=O)N[C@H](C(=O)N[C@@H](CCCNC(=N)N)C(N)=O)[C@@H](C)O [Dansyl-ITR-amide] (Dansyl-Ile-Thr-Arg-NH2)
−16	CC[C@H](C)[C@H](NS(=O)(=O)c1cccc2c(N(C)C)cccc12)C(=O)N[C@H](C(=O)N[C@@H](CCCNC(=N)N)C(N)=O)C(C)C [Dansyl-IVR-amide] (Dansyl-Ile-Val-Arg-NH2)
−2	CC[C@H](C)[C@H](NS(=O)(=O)c1cccc2c(N(C)C)cccc12)C(=O)N[C@@H](Cc1c[nH]c2ccccc12)C(=O)N[C@@H](CCCNC(=N)N)C(N)=O [Dansyl-IWR-amide] (Dansyl-Ile-Trp-Arg-NH2)
−12	CC[C@H](C)[C@H](NS(=O)(=O)c1cccc2c(N(C)C)cccc12)C(=O)N[C@@H](Cc1ccc(O)cc1)C(=O)N[C@@H](CCCNC(=N)N)C(N)=O [Dansyl-IYR-amide] (Dansyl-Ile-Tyr-Arg-NH2)
−24	C[C@H](NC(=O)[C@H](CCCCN)NS(=O)(=O)c1cccc2c(N(C)C)cccc12)C(=O)N[C@@H](CCCNC(=N)N)C(N)=O [Dansyl-KAR-amide] (Dansyl-Lys-Ala-Arg-NH2)
7	CN(C)c1cccc2c(S(=O)(=O)N[C@@H](CCCCN)C(=O)N[C@@H](CC(=O)O)C(=O)N[C@@H](CCCNC(=N)N)C(N)=O)cccc12 [Dansyl-KDR-amide] (Dansyl-Lys-Asp-Arg-NH2)
